Assay [1] addresses rat α9α10 nAChR (Rattus norvegicus, UniProt P43144+Q9JLB5). The assay is described as follows: cell-based.
In assay [2] the target is α3β4 nAChR (Rattus norvegicus, UniProt P04757+P12392). To be noted: cited from earlier work.

Here are results for two molecules from US10947274B1 (priority 2018, dated 2021).

Where a SMILES comes first, the peptide text is derived from it. Bridges are numbered along the chain shown (N, C = ends). [ ]: non-standard residue; d: D form. Sec = N[C@@H](C[SeH])C(=O)O

Chain of rat α9α10 nAChR (P43144 26-479 limits assumed): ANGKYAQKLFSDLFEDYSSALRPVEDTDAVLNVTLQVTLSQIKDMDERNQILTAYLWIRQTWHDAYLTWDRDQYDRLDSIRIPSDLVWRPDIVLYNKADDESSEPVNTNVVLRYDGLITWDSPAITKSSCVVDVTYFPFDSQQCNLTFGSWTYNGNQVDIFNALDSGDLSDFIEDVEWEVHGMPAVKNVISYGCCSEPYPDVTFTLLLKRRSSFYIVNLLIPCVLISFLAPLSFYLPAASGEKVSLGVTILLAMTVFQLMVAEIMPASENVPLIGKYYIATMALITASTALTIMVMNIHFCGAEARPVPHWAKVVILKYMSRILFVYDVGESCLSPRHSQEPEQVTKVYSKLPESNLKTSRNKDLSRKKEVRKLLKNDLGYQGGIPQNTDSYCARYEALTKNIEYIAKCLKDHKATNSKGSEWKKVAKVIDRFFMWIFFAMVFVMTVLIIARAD
Chain of rat α9α10 nAChR (Q9JLB5 25-447 limits assumed): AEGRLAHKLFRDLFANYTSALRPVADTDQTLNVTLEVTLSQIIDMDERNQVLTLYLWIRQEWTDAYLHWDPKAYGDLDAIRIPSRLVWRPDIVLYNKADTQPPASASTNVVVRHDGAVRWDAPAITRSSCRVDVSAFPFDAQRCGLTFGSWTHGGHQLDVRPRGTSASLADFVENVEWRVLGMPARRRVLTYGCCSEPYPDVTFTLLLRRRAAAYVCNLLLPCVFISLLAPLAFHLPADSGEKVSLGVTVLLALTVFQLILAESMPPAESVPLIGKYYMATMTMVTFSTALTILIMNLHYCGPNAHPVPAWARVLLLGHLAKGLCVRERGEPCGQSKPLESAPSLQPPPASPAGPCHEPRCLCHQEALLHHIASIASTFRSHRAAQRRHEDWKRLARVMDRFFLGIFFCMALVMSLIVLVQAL
Chain of α3β4 nAChR (P04757 26-499 limits assumed): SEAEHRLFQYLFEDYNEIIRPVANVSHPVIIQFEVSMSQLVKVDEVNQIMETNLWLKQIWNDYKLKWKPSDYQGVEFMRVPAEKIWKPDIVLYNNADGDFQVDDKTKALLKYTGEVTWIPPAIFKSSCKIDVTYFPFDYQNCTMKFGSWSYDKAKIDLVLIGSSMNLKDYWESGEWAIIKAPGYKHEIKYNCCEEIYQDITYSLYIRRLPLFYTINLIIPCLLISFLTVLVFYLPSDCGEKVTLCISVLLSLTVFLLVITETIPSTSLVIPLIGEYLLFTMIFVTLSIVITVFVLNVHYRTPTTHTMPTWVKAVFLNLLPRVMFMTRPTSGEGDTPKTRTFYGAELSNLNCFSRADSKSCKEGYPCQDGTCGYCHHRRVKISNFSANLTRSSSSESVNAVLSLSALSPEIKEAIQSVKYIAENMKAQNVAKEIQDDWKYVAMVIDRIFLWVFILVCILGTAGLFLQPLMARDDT
Chain of α3β4 nAChR (P12392 21-495 limits assumed): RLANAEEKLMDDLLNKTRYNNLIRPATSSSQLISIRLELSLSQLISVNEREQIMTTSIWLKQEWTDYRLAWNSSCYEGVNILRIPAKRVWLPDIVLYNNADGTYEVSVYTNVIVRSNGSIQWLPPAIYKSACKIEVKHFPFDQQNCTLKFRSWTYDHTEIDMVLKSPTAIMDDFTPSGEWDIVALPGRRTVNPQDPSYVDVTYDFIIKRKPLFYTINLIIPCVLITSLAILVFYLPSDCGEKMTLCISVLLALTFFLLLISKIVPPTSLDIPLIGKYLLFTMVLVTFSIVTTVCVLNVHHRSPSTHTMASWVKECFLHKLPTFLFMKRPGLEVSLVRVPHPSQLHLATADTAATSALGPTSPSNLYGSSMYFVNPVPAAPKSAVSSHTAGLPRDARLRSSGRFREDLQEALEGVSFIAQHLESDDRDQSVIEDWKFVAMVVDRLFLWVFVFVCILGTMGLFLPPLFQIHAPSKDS

For orientation: IC50 means the midpoint of a concentration-inhibition curve. For `N=C(N)NCCC[C@H](NC(=O)[C@@H]1C[Se][Se]C[C@@H]2NC(=O)[C@@H](NC(=O)CN)CSSC[C@H](NC(=O)[C@H](CCCNC(=N)N)NC(=O)[C@@H]3CCCN3C(=O)[C@H](CC(=O)O)NC(=O)[C@H](CO)NC2=O)C(=O)N[C@@H](CCCNC(=N)N)C(=O)N[C@@H](Cc2ccc(O)cc2)C(=O)N[C@@H](CCCNC(=N)N)C(=O)N1)C(=O)O` [[C3 Sec;C12Sec] RgIA] (H-GC[Sec]SDPRCRYR[Sec]R-OH; disulfide 2-8; diselenide 3-12), in assay [1], the “% block” value is reported as <10 nM (81.9 ± 1.8% block at 10 nM) and the IC50 is under 0.01 µM.

In the case of α-conotoxin AuIB, the IC50 in assay [2] is 3.1 ± 1 µM.
